Test results published in ChEMBL document CHEMBL1759888, “Biological evaluation of polyhalo 1,3-diazaheterocycle fused isoquinolin-1(2H)-imine derivatives” (Eur J Med Chem, 2011).
Converted amounts (≈) assume the structure as drawn.

How the values were obtained:
A-431 = assay: Anticancer activity against human A431 cells after 72 hrs by MTT assay; conditions: A-431, 72 h
SK-OV-3 = assay: Anticancer activity against human SKOV3 cells after 72 hrs by MTT assay; conditions: SK-OV-3, 72 h
HepG2 = assay: Anticancer activity against human HepG2 cells after 72 hrs by MTT assay; conditions: HepG2, 72 h
[1] = Lipophilicity, log P of the compound; assay type: physicochemical; conditions: octanol/water
K562 = assay: Anticancer activity against human K562 cells after 48 hrs by MTT assay; conditions: K562, 48 h
HL-60 = assay: Anticancer activity against human HL60 cells after 48 hrs by MTT assay; conditions: HL-60, 48 h

| Structure (SMILES) | IC50 (A-431) | IC50 (SK-OV-3) | IC50 (HepG2) | logP [1] | IC50 (K562) | IC50 (HL-60) |
| --- | --- | --- | --- | --- | --- | --- |
| CC(=O)c1c2n(c(=N)c3c(F)c(C#N)c(F)c(F)c13)CCN2 | 4.4 µg/mL (≈ 14.4 µM) | 0.02 µg/mL (≈ 0.0653 µM) | 3.1 µg/mL (≈ 10.1 µM) | 1.03 | 0.1 µg/mL (≈ 0.327 µM) | 0.02 µg/mL (≈ 0.0653 µM) |
| CC(=O)c1c2n(c(=N)c3c(Cl)c(C#N)c(Cl)c(Cl)c13)CCN2 | 308 µg/mL (≈ 866 µM) | 78.4 µg/mL (≈ 220 µM) | 503 µg/mL (≈ 1410 µM) | 2.43 | 3.6 µg/mL (≈ 10.1 µM) | 4.7 µg/mL (≈ 13.2 µM) |
| Cc1ccc(C(=O)c2c3n(c(=N)c4c(F)c(C#N)c(F)c(Cl)c24)CCCN3)cc1 | 27.5 µg/mL (≈ 66.6 µM) | 76.4 µg/mL (≈ 185 µM) | 24.6 µg/mL (≈ 59.6 µM) | 3.85 | 2.3 µg/mL (≈ 5.57 µM) | 14.6 µg/mL (≈ 35.4 µM) |
| N#Cc1c(F)c(Cl)c2c(C(=O)c3ccc(Cl)cc3)c3n(c(=N)c2c1F)CCN3 | 5 µg/mL (≈ 11.9 µM) | 34.9 µg/mL (≈ 83.3 µM) | 12.4 µg/mL (≈ 29.6 µM) | 4 | 1.4 µg/mL (≈ 3.34 µM) | 0.3 µg/mL (≈ 0.716 µM) |
| N#Cc1c(F)c(Cl)c2c(C(=O)c3ccccc3)c3n(c(=N)c2c1F)CCO3 | 2.3 µg/mL (≈ 5.96 µM) | 29.2 µg/mL (≈ 75.7 µM) | 3.6 µg/mL (≈ 9.33 µM) | 3.21 | 1.7 µg/mL (≈ 4.41 µM) | 1.5 µg/mL (≈ 3.89 µM) |
| N#Cc1c(F)c(F)c2c(C(=O)c3ccccc3)c3n(c(=N)c2c1F)CCN3 | 0.8 µg/mL (≈ 2.17 µM) | 0.2 µg/mL (≈ 0.543 µM) | 1.2 µg/mL (≈ 3.26 µM) | 2.63 | 0.08 µg/mL (≈ 0.217 µM) | 0.001 µg/mL (≈ 0.00272 µM) |
| COc1ccc(C(=O)c2c3n(c(=N)c4c(F)c(C#N)c(F)c(Cl)c24)CCO3)cc1 | 2.1 µg/mL (≈ 5.05 µM) | 23.8 µg/mL (≈ 57.2 µM) | 2 µg/mL (≈ 4.81 µM) | 3.21 | 0.5 µg/mL (≈ 1.2 µM) | 1 µg/mL (≈ 2.41 µM) |
| COc1ccc(C(=O)c2c3n(c(=N)c4c(F)c(C#N)c(F)c(F)c24)CCN3)cc1 | 7.5 µg/mL (≈ 18.8 µM) |  | 0.9 µg/mL (≈ 2.26 µM) | 2.62 | 0.4 µg/mL (≈ 1 µM) | 0.5 µg/mL (≈ 1.26 µM) |
| CCOC(=O)c1c2n(c(=N)c3c(F)c(C#N)c(F)c(Cl)c13)CCN2 | 2.2 µg/mL (≈ 6.24 µM) | 0.05 µg/mL (≈ 0.142 µM) | 1.5 µg/mL (≈ 4.25 µM) | 2.68 | 0.0008 µg/mL (≈ 0.00227 µM) | 0.003 µg/mL (≈ 0.00851 µM) |
| N#Cc1c(F)c(F)c2c(C(=O)c3ccc(Cl)cc3)c3n(c(=N)c2c1F)CCN3 | 4.9 µg/mL (≈ 12.2 µM) | 34.5 µg/mL (≈ 85.7 µM) | 17.7 µg/mL (≈ 43.9 µM) | 3.36 | 1 µg/mL (≈ 2.48 µM) | 0.5 µg/mL (≈ 1.24 µM) |
| COc1ccc(C(=O)c2c3n(c(=N)c4c(F)c(C#N)c(F)c(Cl)c24)CCCN3)cc1 | 2 µg/mL (≈ 4.66 µM) | 26.8 µg/mL (≈ 62.5 µM) | 0.8 µg/mL (≈ 1.87 µM) | 3.34 | 0.07 µg/mL (≈ 0.163 µM) | 0.5 µg/mL (≈ 1.17 µM) |
| COc1ccc(C(=O)c2c3n(c(=N)c4c(F)c(C#N)c(F)c(Cl)c24)CCN3)cc1 | 1.9 µg/mL (≈ 4.58 µM) |  | 1.2 µg/mL (≈ 2.89 µM) | 3.26 | 0.3 µg/mL (≈ 0.723 µM) | 0.2 µg/mL (≈ 0.482 µM) |

The next lines start with the values.

| IC50 (A-431) | IC50 (SK-OV-3) | IC50 (HepG2) | logP [1] | IC50 (K562) | IC50 (HL-60) | Structure (SMILES) |
| --- | --- | --- | --- | --- | --- | --- |
| 4.8 µg/mL (≈ 12.5 µM) | 5.8 µg/mL (≈ 15.1 µM) | 0.3 µg/mL (≈ 0.78 µM) | 3.27 | 0.4 µg/mL (≈ 1.04 µM) | 0.1 µg/mL (≈ 0.26 µM) | N#Cc1c(F)c(Cl)c2c(C(=O)c3ccccc3)c3n(c(=N)c2c1F)CCN3 |
| 56.9 µg/mL (≈ 123 µM) | 67.2 µg/mL (≈ 146 µM) | 400 µg/mL (≈ 866 µM) | 4.1 | 1.4 µg/mL (≈ 3.03 µM) | 4.4 µg/mL (≈ 9.53 µM) | COc1ccc(C(=O)c2c3n(c(=N)c4c(Cl)c(C#N)c(Cl)c(Cl)c24)CCCN3)cc1 |
| 2.1 µg/mL (≈ 4.69 µM) |  | 11.3 µg/mL (≈ 25.2 µM) | 4.02 | 0.7 µg/mL (≈ 1.56 µM) | 0.3 µg/mL (≈ 0.67 µM) | COc1ccc(C(=O)c2c3n(c(=N)c4c(Cl)c(C#N)c(Cl)c(Cl)c24)CCN3)cc1 |
| 2.1 µg/mL (≈ 5.3 µM) | 33.9 µg/mL (≈ 85.5 µM) | 2.4 µg/mL (≈ 6.05 µM) | 3.21 | 0.7 µg/mL (≈ 1.77 µM) | 4.7 µg/mL (≈ 11.9 µM) | Cc1ccc(C(=O)c2c3n(c(=N)c4c(F)c(C#N)c(F)c(F)c24)CCCN3)cc1 |
| 1.5 µg/mL (≈ 3.76 µM) | 0.2 µg/mL (≈ 0.501 µM) | 0.5 µg/mL (≈ 1.25 µM) | 2.57 | 1.8 µg/mL (≈ 4.51 µM) | 0.1 µg/mL (≈ 0.25 µM) | COc1ccc(C(=O)c2c3n(c(=N)c4c(F)c(C#N)c(F)c(F)c24)CCO3)cc1 |
| 2.8 µg/mL (≈ 6.46 µM) | 17.1 µg/mL (≈ 39.5 µM) | 2.1 µg/mL (≈ 4.85 µM) | 4.08 | 0.3 µg/mL (≈ 0.692 µM) | 0.2 µg/mL (≈ 0.462 µM) | N#Cc1c(F)c(Cl)c2c(C(=O)c3ccc(Cl)cc3)c3n(c(=N)c2c1F)CCCN3 |
